Experimental data: PubChem BioAssay AID248 (DTP/NCI, 2004)
Inconclusive results and toxic doses are left out. Rule as the data show it: active = T/C of 150% or more; inactive = T/C below 125%.

Tested on: L1210 leukemia ip in BDF1 mice, survival T/C
Experiment: NCI In Vivo Anticancer Drug Screen. Data for tumor model L1210 Leukemia (intraperitoneal) in B6D2F1 (BDF1) mice
Settings: endpoint: mean survival time, higher = longer survival
How it was run: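 Each compound was tested against a transplantable tumor grown in mice. The endpoint was survival, with treated animals benchmarked against vehicle controls as a simple ratio.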

[1] = dose: 100.0 mg/kg/injection, schedule: Q04DX003 (ip), vehicle: Klucel (hydroxypropylcellulose) (HPC)
[2] = dose: 100.0 mg/kg/injection, schedule: Q04DX003 (ip), vehicle: saline
[3] = dose: 200.0 mg/kg/injection, schedule: Q04DX003 (ip), vehicle: Klucel (hydroxypropylcellulose) (HPC)
[4] = dose: 200.0 mg/kg/injection, schedule: Q04DX003 (ip), vehicle: saline
[5] = dose: 400.0 mg/kg/injection, schedule: Q04DX003 (ip), vehicle: Klucel (hydroxypropylcellulose) (HPC)
[6] = dose: 100.0 mg/kg/injection, schedule: Q01DX009 (ip), vehicle: Klucel (hydroxypropylcellulose) (HPC)
[7] = dose: 200.0 mg/kg/injection, schedule: Q01DX009 (ip), vehicle: Klucel (hydroxypropylcellulose) (HPC)
[8] = dose: 400.0 mg/kg/injection, schedule: Q01DX009 (ip), vehicle: Klucel (hydroxypropylcellulose) (HPC)
[9] = dose: 100.0 mg/kg/injection, schedule: Q04DX003 (ip), vehicle: saline with Tween-80
[10] = dose: 200.0 mg/kg/injection, schedule: Q04DX003 (ip), vehicle: saline with Tween-80
[11] = dose: 400.0 mg/kg/injection, schedule: Q04DX003 (ip), vehicle: saline with Tween-80
[12] = dose: 50.0 mg/kg/injection, schedule: Q01DX009 (ip), vehicle: saline with Tween-80
[13] = dose: 100.0 mg/kg/injection, schedule: Q01DX009 (ip), vehicle: saline with Tween-80
[14] = dose: 200.0 mg/kg/injection, schedule: Q01DX009 (ip), vehicle: saline with Tween-80
[15] = dose: 100.0 mg/kg/injection, schedule: Q04DX002 (ip), vehicle: Klucel (hydroxypropylcellulose) (HPC)
[16] = dose: 200.0 mg/kg/injection, schedule: Q04DX002 (ip), vehicle: Klucel (hydroxypropylcellulose) (HPC)
[17] = dose: 400.0 mg/kg/injection, schedule: Q04DX002 (ip), vehicle: Klucel (hydroxypropylcellulose) (HPC)

Measured: T/C

CC(=O)Nc1ccc(S(=O)(=O)SC(Cl)(Cl)Cl)cc1
inactive: dose: 100.0 mg/kg/injection, schedule: Q01DX009 (ip), vehicle: gum acacia 99 % of control | dose: 200.0 mg/kg/injection, schedule: Q01DX009 (ip), vehicle: gum acacia 94 % of control | dose: 400.0 mg/kg/injection, schedule: Q01DX009 (ip), vehicle: gum acacia 99 % of control

CC(=O)OCC1OC(OC(C)=O)C(NC(=O)N(C)C)C(OC(C)=O)C1OC(C)=O (centres undefined)
inactive: dose: 50.0 mg/kg/injection, schedule: Q04DX003 (ip), vehicle: saline 103 % of control | [1] 101 % of control | [2] 106 % of control | [3] 103 % of control | [4] 101 % of control | [5] 103 % of control

COc1cc(C=Nc2cc(Cl)c(Cl)c(Cl)c2)ccc1N(CCCl)CCCl
inactive: dose: 15.0 mg/kg/injection, schedule: Q01DX001 (ip), vehicle: carboxymethylcellulose (CMC) 123 % of control | dose: 30.0 mg/kg/injection, schedule: Q01DX001 (ip), vehicle: carboxymethylcellulose (CMC) 121 % of control

COC(=O)c1nn2c(=O)c3cccc4cccc(c43)c2c1C(=O)OC
inactive: [6] 95 % of control | [7] 98 % of control | [8] 100 % of control

C/C(=N/NC(=O)c1ccncc1)C(=O)O
inactive: dose: 25.0 mg/kg/injection, schedule: Q04DX003 (ip), vehicle: saline with Tween-80 92 % of control | dose: 50.0 mg/kg/injection, schedule: Q04DX003 (ip), vehicle: saline with Tween-80 93 % of control | [9] 101 % of control

COc1cccc(NC(=O)NCc2ccco2)c1
inactive: [6] 106 % of control | [7] 108 % of control | [8] 103 % of control

CC(=O)c1ccc(C#N)cc1.[Co+3].[NH2-].[NH2-].[NH2-].[NH2-].[NH2-].[O-][Cl+3]([O-])([O-])O
inactive: dose: 100.0 mg/kg/injection, schedule: Q04DX002 (ip), vehicle: saline 104 % of control | dose: 200.0 mg/kg/injection, schedule: Q04DX002 (ip), vehicle: saline 111 % of control | dose: 400.0 mg/kg/injection, schedule: Q04DX002 (ip), vehicle: saline 108 % of control

COc1cc(C)cc(C(=O)O)c1
inactive: dose: 100.0 mg/kg/injection, schedule: Q04DX002 (ip), vehicle: saline with Tween-80 97 % of control | dose: 200.0 mg/kg/injection, schedule: Q04DX002 (ip), vehicle: saline with Tween-80 101 % of control | dose: 400.0 mg/kg/injection, schedule: Q04DX002 (ip), vehicle: saline with Tween-80 101 % of control

COC1OC(COC(C)=O)C(N(C)C(C)=O)C1OC(C)=O (centres undefined)
inactive: dose: 100.0 mg/kg/injection, schedule: Q01DX001 (ip), vehicle: saline 96 % of control | dose: 200.0 mg/kg/injection, schedule: Q01DX001 (ip), vehicle: saline 90 % of control | dose: 400.0 mg/kg/injection, schedule: Q01DX001 (ip), vehicle: saline 94 % of control

Cc1ccc(S(=O)(=O)OCC2OCC(OC(=O)c3ccccc3)C(OC(=O)c3ccccc3)C2OC(=O)c2ccccc2)cc1 (centres undefined)
inactive: [9] 93 % of control | [10] 93 % of control | [11] 90 % of control

O=C(NCCc1c[nH]c2ccccc12)C(=O)NCCc1c[nH]c2ccccc12
inactive: [1] 108 % of control | [3] 93 % of control | [5] 93 % of control

Nc1cc(N2CCCC2)nc(-c2ccccc2)n1
inactive: [12] 98 % of control | [13] 95 % of control

Cc1ccc(Nc2nc(N)nc(N)c2N=O)cc1Cl
inactive: dose: 100.0 mg/kg/injection, schedule: Q01DX Z (ip), vehicle: methylcellulose (MC) 104 % of control | dose: 200.0 mg/kg/injection, schedule: Q01DX Z (ip), vehicle: methylcellulose (MC) 89 % of control

C[C@]12CC[C@H]3C(=CCc4cc(O)ccc43)[C@@H]1CCC2=O
inactive: dose: 100.0 mg/kg/injection, schedule: Q01DX001 (sc), vehicle: steriod suspending solution 94 % of control | dose: 200.0 mg/kg/injection, schedule: Q01DX001 (sc), vehicle: steriod suspending solution 100 % of control | dose: 400.0 mg/kg/injection, schedule: Q01DX001 (sc), vehicle: steriod suspending solution 91 % of control

N#CC1=C(N)CCC(C#N)(c2ccccc2)C1 (centres undefined)
inactive: [13] 98 % of control | [14] 91 % of control

O=C(O)c1cc(N=Nc2cccc([N+](=O)[O-])c2)ccc1O
inactive: dose: 62.5 mg/kg/injection, schedule: Q01DX001 (ip), vehicle: Klucel (hydroxypropylcellulose) (HPC) 97 % of control | dose: 125.0 mg/kg/injection, schedule: Q01DX001 (ip), vehicle: Klucel (hydroxypropylcellulose) (HPC) 92 % of control

Cc1cc([N+](=O)[O-])c2ccccc2c1N(CC(=O)O)S(=O)(=O)c1ccccc1
inactive: [13] 93 % of control | [9] 90 % of control | [14] 99 % of control | [10] 97 % of control | dose: 400.0 mg/kg/injection, schedule: Q01DX009 (ip), vehicle: saline with Tween-80 104 % of control | [11] 89 % of control

N#CCCN1CCN(CCC#N)CC1
inactive: [2] 96 % of control | [4] 103 % of control | dose: 400.0 mg/kg/injection, schedule: Q04DX003 (ip), vehicle: saline 100 % of control

Cc1ccc(-c2nc3ncncc3[nH]2)cc1[N+](=O)[O-]
inactive: dose: 32.5 mg/kg/injection, schedule: Q01DX001 (ip), vehicle: Klucel (hydroxypropylcellulose) (HPC) 100 % of control | dose: 65.0 mg/kg/injection, schedule: Q01DX001 (ip), vehicle: Klucel (hydroxypropylcellulose) (HPC) 102 % of control | dose: 130.0 mg/kg/injection, schedule: Q01DX001 (ip), vehicle: Klucel (hydroxypropylcellulose) (HPC) 97 % of control

CC1(CCN2CCC3(CC2)C(=O)NCN3c2ccccc2)Oc2ccccc2O1
inactive: [1] 104 % of control | [3] 111 % of control | [5] 93 % of control

CCOC(=O)C(Cc1c[nH]c2ccccc12)[N+](=O)[O-] (centres undefined)
inactive: dose: 100.0 mg/kg/injection, schedule: Q04DX003 (sc), vehicle: olive oil, sesame oil, peanut oil 97 % of control | dose: 200.0 mg/kg/injection, schedule: Q04DX003 (sc), vehicle: olive oil, sesame oil, peanut oil 98 % of control | dose: 400.0 mg/kg/injection, schedule: Q04DX003 (sc), vehicle: olive oil, sesame oil, peanut oil 101 % of control

NOCc1ccc(OCc2ccccc2)cc1
inactive: dose: 100.0 mg/kg/injection, schedule: Q04DX003 (ip), vehicle: acetone 102 % of control | dose: 200.0 mg/kg/injection, schedule: Q04DX003 (ip), vehicle: acetone 95 % of control

CC(=O)OC(C)C(=O)C1=C2CCCN2CCc2cc3c(cc21)OCO3 (centres undefined)
inactive: [15] 103 % of control | [16] 103 % of control | [17] 103 % of control

O=C(Nc1cccc2ccccc12)Nc1cccc2ccccc12
inactive: dose: 100.0 mg/kg/injection, schedule: Q01DX001 (ip), vehicle: carboxymethylcellulose (CMC) 95 % of control | dose: 200.0 mg/kg/injection, schedule: Q01DX001 (ip), vehicle: carboxymethylcellulose (CMC) 90 % of control | dose: 400.0 mg/kg/injection, schedule: Q01DX001 (ip), vehicle: carboxymethylcellulose (CMC) 92 % of control

COC(=O)C1(C(=O)OC)C2CC=C(C)CC21 (centres undefined)
inactive: dose: 100.0 mg/kg/injection, schedule: Q01DX009 (ip), vehicle: acetone 100 % of control | dose: 200.0 mg/kg/injection, schedule: Q01DX009 (ip), vehicle: acetone 98 % of control | dose: 400.0 mg/kg/injection, schedule: Q01DX009 (ip), vehicle: acetone 90 % of control

Cc1cc2nc(N)[nH]c2cc1C
inactive: dose: 12.5 mg/kg/injection, schedule: Q04DX002 (ip), vehicle: saline + alcohol 96 % of control | dose: 25.0 mg/kg/injection, schedule: Q04DX002 (ip), vehicle: saline + alcohol 96 % of control | dose: 50.0 mg/kg/injection, schedule: Q04DX002 (ip), vehicle: saline + alcohol 100 % of control

N#Cc1c(N)[n+]([O-])c2c([n+]1[O-])CCCC2
inactive: [15] 101 % of control | [16] 104 % of control | [17] 87 % of control

O=C(Nc1ccc(Cl)cc1Cl)Oc1ccc(F)cc1
inactive: [12] 94 % of control | [13] 94 % of control | [14] 102 % of control
